One may read the Cmax as the peak of the concentration-time curve. In general, Tmax refers to the time at which the peak concentration occurs. The term CC50 denotes the concentration at which the toxic effect on the cells reaches its halfway point. A lower CC50 goes with harm at low concentration. The term EC50 denotes the concentration that produces a half-maximal response. In general, aqueous solubility refers to how much of the substance goes into solution per volume. Low values mean a poorly soluble substance, high ones a readily soluble substance.

This is an account of results in patent US9676727B2, “Myxovirus therapeutics, compounds, and uses related thereto” (priority 2011, dated 2017).

≈ marks a conversion by molar mass, not a printed value.

Series [1] is described as follows: Pharmacokinetic study in rat, plasma concentration after dosing. The format is in vivo, Sprague-Dawley rat. Conditions: suspension in PEG200/0.5% methylcellulose (10/90). On the procedure: Preliminary pharmacokinetic (PK) studies in the Sprague-Dawley rat compared AS-136a with compounds 2k and 2o following p.o. dosing by oral gavage at 10 mg/kg and 50 mg/kg in a PEG200/0.5% methylcellulose (10/90) vehicle (n=4/group).
The data from the preliminary pharmacokinetic studies using the 6-hour time point are reported for comparison purposes. […] On the basis of its excellent in vitro potency, good solubility and pharmacokinetic profile, compound 2o was chosen for further bioavailability evaluation.

The subject of the next series is Vero cells. As to the kind of experiment: MTT cytotoxicity. The format is cell-based. The note with it: averages of at least three experiments; highest concentration assessed 75 μM.
Series [2] relates to MV-Alaska. The series can be described thus: Virus yield (virus titer) reduction assay. Conditions: Measles morbillivirus; averages of two to four experiments ± SEM; highest concentration assessed 1 μM; read-out: EC50 (μM) (MV-Alaska) virus titer reduction. Type of series: cell-based, Measles virus (MeV).
Series [3] is described as follows: Aqueous solubility by nephelometry. Type of series: physicochemical. Conditions: buffer pH=7.4; for Aqueous solubility (μg/ml) Test: Nephelometer.
Series [4] has as its system MV-Alaska. As to the kind of experiment: Viral CPE-reduction assay (MeV-Alaska in Vero-SLAM cells, crystal violet). The format is cell-based, Measles virus (MeV). On the procedure:
Methods for evaluating viral activity are provided for in Yoon et al., J Biomol Screen., 2008, 13(7): 591-608 and Krumm et al., PLoS ONE, 2011, 6(5), e20069, both hereby incorporated by reference in their entirety. In certain instances, Vero-SLAM cells were infected with MeV-Alaska in four replicates per compound concentration in a 96-well plate format at an MOI of 0.4 pfu/cell in the presence of the inhibitor. At 96 hours post-infection, cell monolayers were subjected to crystal violet staining (0.1% crystal violet in 20% ethanol), and the absorbance of dried plates at 560 nm determined. Virus-induced cytopathicity was then calculated according to the formula [% rel. CPE=100-(experimental-minimum)/(maximum-minimum)*100], with minimum referring to infected, vehicle-treated wells and maximum to mock-infected wells.

The mark [5] stands for this setting: Table 1, piperidine series, read-out: EC50 (μM) (MV-Alaska) (CPE inhib.).
Where [6] appears, read: Measles morbillivirus, Table 1, piperidine series, read-out: EC50 (μM) (MV-Alaska) (CPE inhib.).
Where [7] appears, read: Measles morbillivirus, Table 3, averages of four experiments, concentration range 2.3-75 μM, read-out: EC50 (μM) (MV-Alaska) CPE inhibition.
Setting [8] is: Measles morbillivirus, Table 2, phenyl and acyclic series, read-out: EC50 (μM) (MV-Alaska) (CPE inhibition).
[9] abbreviates: Measles morbillivirus, read-out: EC50 (μM) (MV-Alaska) (CPE inhib.).

On to `Cn1nc(C(F)(F)F)cc1C(=O)Nc1ccc(S(=O)(=O)N2CCCCC2)cc1` [AS-136a, 1-methyl-N-(4-(piperidin-1-ylsulfonyl)phenyl)-3-(trifluoromethyl)-pyrazole-5-carboxamide, reference compound], for which, in series [1] (oral 10 mg/kg), the “AUC (0-t)” value worked out at 132 ng·h/mL, the “AUC (0-∞)” value was 513 ng·h/mL, the Cmax was 26.9 ng/mL and the time to peak (Tmax) worked out at 2.5 h. This compound yielded a T½ in series [1] (oral 10 mg/kg) of 12.7 h. In addition, in series [1] (oral 50 mg/kg), the “AUC (0-t)” value was 308 ng·h/mL, the “AUC (0-∞)” value amounted to 483 ng·h/mL, the peak concentration (Cmax) turned out to be 72.2 ng/mL and the Tmax stood at 2.7 h. The T½ in series [1] (oral 50 mg/kg) came out at 3.7 h. In the series on Vero cells, the CC50 is over 75 µM. Further, the 50% effective concentration (EC50) with MV-Alaska [2] was determined as 0.014 µM. Besides, the “aqueous solubility” value in series [3] (nephelometry) was 15.0 µg/mL (≈ 36 µM).

As for `Cn1nc(C(F)(F)F)cc1C(=O)Nc1ccc(S(=O)(=O)N2CCCCC2CCO)cc1` (stereo not shown) [Compound 2m, N-(4-((2-(2-hydroxyethyl)piperidin-1-yl)sulfonyl)phenyl)-1-methyl-3-(trifluoromethyl)-pyrazole-5-carboxamide], the concentration giving a half-maximal response (EC50) with MV-Alaska [4] (setting [5]) is 3.1 µM.

As for `CC(=O)NCC1CCCCN1S(=O)(=O)c1ccc(NC(=O)c2cc(C(F)(F)F)nn2C)cc1` (stereo not shown) [Compound 2e, N-(4-((2-(acetamidomethyl)piperidin-1-yl)sulfonyl)phenyl)-1-methyl-3-(trifluoromethyl)-pyrazole-5-carboxamide], in the series with MV-Alaska [4] (setting [6]), the EC50 was determined as 14 µM.

In the series with Vero cells, `Cn1nc(C(F)(F)F)cc1C(=O)Nc1ccc(S(=O)(=O)N2CCCCC2CCN2CCOCC2)cc1` (stereo not shown) [Compound 2n, 1-methyl-N-(4-((2-(2-morpholinoethyl)piperidin-1-yl)sulfonyl)phenyl)-3-(trifluoromethyl)-pyrazole-5-carboxamide] had a half-maximal cytotoxic concentration (CC50) of over 75 µM. Further, the “Aqueous solubility (μg/ml) Test” value in series [3] is 55 µg/mL. For the same compound, in the series with MV-Alaska [4] (setting [6]), the EC50 was 4.6 µM.

For `Cn1nc(C(F)(F)F)cc1C(=O)Nc1ccc(S(=O)(=O)N2CCCCC2CO)cc1` (stereo not shown) [Compound 2a], the half-maximal cytotoxic concentration (CC50) in the series on Vero cells was over 75 µM. Besides, the EC50 with MV-Alaska [2] came out at 0.85 ± 0.05 µM; in the series on MV-Alaska [4] (setting [6]), 2.8 µM; with MV-Alaska [4] (setting [7]), 2.3 µM. In series [3], the “Aqueous solubility (μg/ml) Test” value amounted to 61 µg/mL.

Regarding `CC(=O)Oc1ccccc1S(=O)(=O)c1ccc(NC(=O)c2cc(C(F)(F)F)nn2C)cc1` [Compound 3d, 2-((4-(1-methyl-3-(trifluoromethyl)-pyrazole-5-carboxamido)phenyl)sulfonyl)phenyl acetate], the EC50 in the series with MV-Alaska [4] (setting [8]) came to 4.5 µM.

On to `CCOC(=O)COCC1CCCCN1S(=O)(=O)c1ccc(NC(=O)c2cc(C(F)(F)F)nn2C)cc1` (stereo not shown) [Compound 2p, ethyl 2-((1-((4-(1-methyl-3-(trifluoromethyl)-pyrazole-5-carboxamido)phenyl)sulfonyl)piperidin-2-yl)methoxy)acetate], for which the EC50 with MV-Alaska [4] (setting [6]) came out at 25 µM.

Turning to `Cn1nc(C(F)(F)F)cc1C(=O)Nc1ccc(S(=O)(=O)N2CCCCC2CN2CCOCC2)cc1` (stereo not shown) [Compound 2b, 1-methyl-N-(4-((2-(morpholinomethyl)piperidin-1-yl)sulfonyl)phenyl)-3-(trifluoromethyl)-pyrazole-5-carboxamide], the concentration giving a half-maximal response (EC50) in the series on MV-Alaska [4] (setting [6]) was determined as 9.3 µM.

Turning to `Cn1nc(C(F)(F)F)cc1C(=O)Nc1ccc(S(=O)(=O)N2CCCCC2CCO)cc1` (stereo not shown) [Compound 2l, N-(4-((2-(2-hydroxyethyl)piperidin-1-yl)sulfonyl)phenyl)-1-methyl-3-(trifluoromethyl)-pyrazole-5-carboxamide], the “fold loss of activity compared to 2m” value in the series with MV-Alaska [4] (CPE assay, R versus S chirality) is 3 fold. The 50% effective concentration (EC50) in the series with MV-Alaska [4] (setting [5]) came out at 8.3 µM.

For `Cn1nc(C(F)(F)F)cc1C(=O)Nc1ccc(S(=O)(=O)N2CCCCC2/C=C/CO)cc1` (stereo not shown) [Compound 2h, N-(4-((2-(3-hydroxypropyl-1-ene)piperidin-1-yl)sulfonyl)phenyl)-1-methyl-3-(trifluoromethyl)-pyrazole-5-carboxamide], the EC50 in the series on MV-Alaska [4] (setting [6]) came to 6.8 µM.

Regarding `CCOC(=O)/C=C/C1CCCCN1S(=O)(=O)c1ccc(NC(=O)c2cc(C(F)(F)F)nn2C)cc1` (stereo not shown) [Compound 2g, ethyl 3-(1-((4-(1-methyl-3-(trifluoromethyl)-pyrazole-5-carboxamido)phenyl)sulfonyl)piperidin-2-yl)acrylate], in the series on MV-Alaska [4] (CPE assay), the “fold more active than the corresponding alcohols (2h and 2j)” value is listed as 2 fold. Also, in the series with MV-Alaska [4] (setting [9]), the EC50 turned out to be 3.7 µM.

In the series with Vero cells, `Cn1nc(C(F)(F)F)cc1C(=O)Nc1ccc(S(=O)(=O)c2ccccc2CO)cc1` [Compound 3f, N-(4-((2-(hydroxymethyl)phenyl)sulfonyl)phenyl)-1-methyl-3-(trifluoromethyl)-pyrazole-5-carboxamide] registered a CC50 of over 75 µM. For the same compound, in series [3], the “Aqueous solubility (μg/ml) Test” value stood at 46 µg/mL. Further, the half-maximal effective concentration (EC50) in the series on MV-Alaska [4] (setting [8]) and with MV-Alaska [4] (setting [7]) was 3.1 µM throughout.

Regarding `COCOCC1CCCN(S(=O)(=O)c2ccc(NC(=O)c3cc(C(F)(F)F)nn3C)cc2)C1` (stereo not shown) [Compound 1b, N-(4-((3-((methoxymethoxy)methyl)piperidin-1-yl)sulfonyl)phenyl)-1-methyl-3-(trifluoromethyl)-pyrazole-5-carboxamide], the EC50 in the series with MV-Alaska [4] (setting [6]) was determined as 3.8 µM.

With `Cn1nc(C(F)(F)F)cc1C(=O)Nc1ccc(S(=O)(=O)N2CCCCC2CCCO)cc1` (stereo not shown) [Compound 2j, N-(4-((2-(3-hydroxypropyl)piperidin-1-yl)sulfonyl)phenyl)-1-methyl-3-(trifluoromethyl)-pyrazole-5-carboxamide], in the series on MV-Alaska [4] (setting [6]), the concentration giving a half-maximal response (EC50) turned out to be 6.7 µM.

Consider `CCOC(=O)CCC1CCCCN1S(=O)(=O)c1ccc(NC(=O)c2cc(C(F)(F)F)nn2C)cc1` (stereo not shown) [Compound 2i, ethyl 3-(1-((4-(1-methyl-3-(trifluoromethyl)-pyrazole-5-carboxamido)phenyl)sulfonyl)piperidin-2-yl)propanoate], for which the “fold more active than the corresponding alcohols (2h and 2j)” value with MV-Alaska [4] (CPE assay) worked out at 2 fold. Besides, in the series on MV-Alaska [4] (setting [6]), the 50% effective concentration (EC50) was found to be 2.7 µM.

Take `COc1ccccc1S(=O)(=O)c1ccc(NC(=O)c2cc(C(F)(F)F)nn2C)cc1` [Compound 3b, N-(4-((2-methoxyphenyl)sulfonyl)phenyl)-1-methyl-3-(trifluoromethyl)-pyrazole-5-carboxamide]: the half-maximal cytotoxic concentration (CC50) in the series on Vero cells was over 75 µM. Besides, the 50% effective concentration (EC50) with MV-Alaska [4] (setting [8]) is 3.1 µM.

As for `Cn1nc(C(F)(F)F)cc1C(=O)Nc1ccc(S(=O)(=O)N2CCCCC2CN=[N+]=[N-])cc1` (stereo not shown) [Compound 2c], the EC50 in the series on MV-Alaska [4] (setting [6]) came to 1.5 µM.

As to `Cn1nc(C(F)(F)F)cc1C(=O)Nc1ccc(S(=O)(=O)N2CCCCC2COCCO)cc1` (stereo not shown) [Compound 2q, N-(4-((2-((2-hydroxyethoxy)methyl)piperidin-1-yl)sulfonyl)phenyl)-1-methyl-3-(trifluoromethyl)-pyrazole-5-carboxamide], in the series on MV-Alaska [4] (setting [6]), the concentration for a half-maximal effect (EC50) was 8.3 µM.

For `Cn1nc(C(F)(F)F)cc1C(=O)Nc1ccc(S(=O)(=O)N2CCCCC2CN)cc1` (stereo not shown) [Compound 2d, N-(4-((2-(aminomethyl)piperidin-1-yl)sulfonyl)phenyl)-1-methyl-3-(trifluoromethyl)-pyrazole-5-carboxamide], in the series with MV-Alaska [4] (setting [9]), the EC50 amounted to 55 µM.

`Cn1nc(C(F)(F)F)cc1C(=O)Nc1ccc(S(=O)(=O)c2ccccc2)cc1` [Compound 3a, 1-methyl-N-(4-(phenylsulfonyl)phenyl)-3-(trifluoromethyl)-pyrazole-5-carboxamide] showed a cytotoxic concentration (CC50) in the series with Vero cells of over 75 µM. Further, the 50% effective concentration (EC50) stood at 0.02 µM with MV-Alaska [2] and 2.8 µM in the series on MV-Alaska [4] (setting [8]). In series [3], the “Aqueous solubility (μg/ml) Test” value was 22 µg/mL.

As to `COCOCC1CCN(S(=O)(=O)c2ccc(NC(=O)c3cc(C(F)(F)F)nn3C)cc2)CC1` [Compound 1c, N-(4-((4-((methoxymethoxy)methyl)piperidin-1-yl)sulfonyl)phenyl)-1-methyl-3-(trifluoromethyl)-pyrazole-5-carboxamide], the “fold reduction of activity, 4-substituted derivative” value in the series on MV-Alaska [4] (MOM ether analogs, CPE assay, versus 2-piperidine 1a) is listed as about 10 fold. In the series with MV-Alaska [4] (setting [6]), the EC50 turned out to be 16 µM.

For the compound `COCOCC1CCCCN1S(=O)(=O)c1ccc(NC(=O)c2cc(C(F)(F)F)nn2C)cc1` (stereo not shown) [Compound 1a, N-(4-((2-((methoxymethoxy)methyl)piperidin-1-yl)sulfonyl)phenyl)-1-methyl-3-(trifluoromethyl)-pyrazole-5-carboxamide], the “fold more potent than the corresponding 3-piperidine” value in the series with MV-Alaska [4] (MOM ether analogs, CPE assay) amounted to 2 fold. The 50% effective concentration (EC50) with MV-Alaska [4] (setting [6]) turned out to be 1.5 µM.
